The text below walks through data of patent US20250177477A1, “CYCLOSPORIN ANALOGUES AND USES THEREOF” (DYNEQ MEDICAL LIMITED, priority 2017, published 2025).

In one assay the target is cyclophilin B (Homo sapiens, UniProt P23284). Put plainly: Cyclophilin inhibition binding, competitive ELISA (Cyclophilin B). Particulars: human recombinant cyclophilin, read-out: EC50 against cyclophilin B. As for the experimental part:
The cyclophilin inhibition binding of compounds disclosed herein was determined using a competitive ELISA adapted from the methods described by Quesniaux et al. (Eur. J Immunol., 1987, 17:1359-1365). Activated ester of succinyl spacers bound to D-Lys^8-cylosporine A (D-Lys^8-Cs) are coupled to bovine serum albumin (BSA) through D-lysyl residue in position 8. BSA is dissolved in 0.1 M borate buffer, pH 9.0 (4 mg in 1.4 ml). A hundredfold molar excess of D-Lys^8-Cs dissolved in dimethyl formamide (0.6 ml) is added drop wise to the BSA under vigorous stirring. […] After acetone precipitation of an aliquot of the conjugated protein, no covalently bound D-Lys^8-Cs remains in the acetone solution and the extent of cyclosporine covalent binding is calculated.
Microtiter Plates are coated with D-Lys^8-Cs-BSA conjugate (2 μg/ml in PBS for 24 hours at 4° C.). […] Cyclophilin is detected with anti-cyclophilin rabbit antiserum diluted in 1% BSA containing PBS and incubates overnight at 4° C. […] Bound rabbit antibodies are then detected by goat anti-rabbit IgG conjugated to alkaline phosphatase diluted in 1% BSA-PBS and allowed to incubate for 2 hours at 37° C. […] After incubation with 4-nitrophenyl phosphate (1 g/l in diethanolamine buffer, pH 9.8) for 1 to 2 hours at 37° C., the enzymatic reaction is measured spectrophotometrically at 405 nm using a spectrophotometer. […]
On the technique in general: In an ELISA, binding on a coated surface is turned into a signal by an enzyme label.

Assay [1] has as its system Sprague-Dawley rats with induced Acute Kidney Injury. Put plainly: Renal Ischemia-Reperfusion Induced Acute Kidney Injury in rats. In kind it is in vivo, rat. To be noted: for Creatinine: serum 24 hours after ligation/release. As for the experimental part: With the exception of Group (i), i.e. the ‘sham group’, renal Ischemia-Reperfusion Induced Acute Kidney Injury (AKI) was induced in the rats by ligation of bilateral renal arteries for 30 min and then ligation was released. Animals in the control and treatment groups were administered intraperitoneal injections three times (1 h before ligation, 4 h and 8 h after ligation). Blood was taken from the animals 24 hours after the ligation/release procedure and analyzed for serum Creatinine and Blood Urea Nitrogen (BUN) concentrations, as a measure of kidney injury.

In another assay the target is Cyclophilin D (Homo sapiens, UniProt P30405). Put plainly: Cyclophilin inhibition binding, competitive ELISA (Cyclophilin D). Particulars: human recombinant cyclophilin, read-out: CypD EC50. As for the experimental part: (§1) The cyclophilin inhibition binding of compounds disclosed herein was determined using a competitive ELISA adapted from the methods described by Quesniaux et al. (Eur. J Immunol., 1987, 17:1359-1365). Activated ester of succinyl spacers bound to D-Lys^8-cylosporine A (D-Lys^8-Cs) are coupled to bovine serum albumin (BSA) through D-lysyl residue in position 8. BSA is dissolved in 0.1 M borate buffer, pH 9.0 (4 mg in 1.4 ml). A hundredfold molar excess of D-Lys^8-Cs dissolved in dimethyl formamide (0.6 ml) is added drop wise to the BSA under vigorous stirring. The coupling reaction is performed for 2 to 3 hours at room temperature under mild stirring and the conjugate is extensively dialyzed against phosphate-buffered saline (PBS, pH 7.4).
Cyclophilin D, sequence (P30405 30-207): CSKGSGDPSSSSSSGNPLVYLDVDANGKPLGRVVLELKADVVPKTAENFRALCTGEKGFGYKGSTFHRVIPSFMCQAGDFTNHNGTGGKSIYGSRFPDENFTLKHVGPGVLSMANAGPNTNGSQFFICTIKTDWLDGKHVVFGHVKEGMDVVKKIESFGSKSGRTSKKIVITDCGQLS
(§2) Microtiter Plates are coated with D-Lys^8-Cs-BSA conjugate (2 μg/ml in PBS for 24 hours at 4° C.). Plates are washed with Tween®/PBS and with PBS alone. To block nonspecific binding, 2% BSA/PBS (pH 7.4) is added to the wells and allowed to incubate for 2 hours at 37° C. […] Cyclophilin is detected with anti-cyclophilin rabbit antiserum diluted in 1% BSA containing PBS and incubates overnight at 4° C. […] Bound rabbit antibodies are then detected by goat anti-rabbit IgG conjugated to alkaline phosphatase diluted in 1% BSA-PBS and allowed to incubate for 2 hours at 37° C. […]

A further assay has as its target Cyclophilin A (Homo sapiens, UniProt P62937). Put plainly: Cyclophilin inhibition binding, competitive ELISA (Cyclophilin A). Particulars: human recombinant cyclophilin, read-out: CypA EC50. As for the experimental part: as §1, §2

Where only a bound is given, the exact number is not on record here.

Cyclophilin A, sequence (P62937 whole entry): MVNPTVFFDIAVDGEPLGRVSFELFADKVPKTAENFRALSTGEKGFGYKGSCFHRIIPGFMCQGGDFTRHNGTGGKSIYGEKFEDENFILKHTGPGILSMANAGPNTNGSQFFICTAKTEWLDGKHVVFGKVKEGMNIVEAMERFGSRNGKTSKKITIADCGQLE
cyclophilin B, sequence (P23284 34-216): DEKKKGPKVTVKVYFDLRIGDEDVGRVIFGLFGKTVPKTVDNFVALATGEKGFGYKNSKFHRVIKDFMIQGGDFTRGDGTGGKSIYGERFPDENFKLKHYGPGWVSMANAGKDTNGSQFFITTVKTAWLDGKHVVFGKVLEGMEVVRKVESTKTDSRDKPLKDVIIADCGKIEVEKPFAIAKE

With `C/C=C/C[C@@H](C)[C@@H](O)[C@H]1C(=O)N[C@@H](CC)C(=O)N(C)[C@H](OCCN(C)C)C(=O)N(C)[C@@H](CC(C)C)C(=O)N[C@@H](C(C)C)C(=O)N(C)[C@@H](CC(C)C)C(=O)N[C@@H](C)C(=O)N[C@H](C)C(=O)N(C)[C@@H](CC(C)C)C(=O)N(C)[C@@H](CC(C)C)C(=O)N(C)[C@@H](C(C)C)C(=O)N1C` [Compound 1], the EC50 (commonly the concentration needed to bring the measured effect to its halfway point) at cyclophilin B is below 100 nM.
Consider `C/C=C/C[C@@H](C)[C@@H](O)[C@H]1C(=O)N[C@@H](CC)C(=O)N(C)CC(=O)N(C)[C@@H](CC(C)C)C(=O)N[C@@H](C(C)C)C(=O)N(C)[C@@H](CC(C)C)C(=O)N[C@@H](C)C(=O)N[C@H](C)C(=O)N(C)[C@@H](CC(C)C)C(=O)N(C)[C@@H](CC(C)C)C(=O)N(C)[C@@H](C(C)C)C(=O)N1C` [CsA, Cyclosporin A], for which the Creatinine in assay [1] (3 mg/kg i.p. three times) is 115 µmol/L; in assay [1] (10 mg/kg i.p. three times) it was 290 µmol/L. Further, the “Blood Urea Nitrogen” value in assay [1] (10 mg/kg i.p. three times, 24 hours after ligation/release) is reported as 42 mmol/L.
`C/C=C/C[C@@H](C)[C@@H](O)[C@H]1C(=O)N[C@@H](CC)C(=O)N(C)[C@H](OCCNC)C(=O)N(C)[C@@H](CC(C)C)C(=O)N[C@@H](C(C)C)C(=O)N(C)[C@@H](CC(C)C)C(=O)N[C@@H](C)C(=O)N[C@H](C)C(=O)N(C)[C@@H](CC(C)C)C(=O)N(C)[C@@H](CC(C)C)C(=O)N(C)[C@@H](C(C)C)C(=O)N1C` [Entry 1]: the EC50 on Cyclophilin D was 2170 nM; at Cyclophilin A, 61 nM.
